In US8846704B2, “Thiopyrimidine-based compounds and uses thereof” (YM Biosciences Austraila Pty Ltd, priority 2007, dated 2014):

target: T1, BaF3 TELJAK3 cells (Homo sapiens, UniProt P52333); test: Cellular screening, BaF3 TEL:JAK3 cells, Alamar Blue; format: cell-based; conditions: 40 hr, read-out: BafT_J3 IC50_nM
T1 construct: fused on or other part: TEL (ETV6) N-terminal part, coding nucleotides 1-487, serves as the oligomerising partner; It is fused through a Sal I site to the JAK3 kinase domain and expressed from pTRE2 in BaF3 cells bearing pTET-off; P41212 (Transcription factor ETV6)
T1 sequence (P52333 1-1124): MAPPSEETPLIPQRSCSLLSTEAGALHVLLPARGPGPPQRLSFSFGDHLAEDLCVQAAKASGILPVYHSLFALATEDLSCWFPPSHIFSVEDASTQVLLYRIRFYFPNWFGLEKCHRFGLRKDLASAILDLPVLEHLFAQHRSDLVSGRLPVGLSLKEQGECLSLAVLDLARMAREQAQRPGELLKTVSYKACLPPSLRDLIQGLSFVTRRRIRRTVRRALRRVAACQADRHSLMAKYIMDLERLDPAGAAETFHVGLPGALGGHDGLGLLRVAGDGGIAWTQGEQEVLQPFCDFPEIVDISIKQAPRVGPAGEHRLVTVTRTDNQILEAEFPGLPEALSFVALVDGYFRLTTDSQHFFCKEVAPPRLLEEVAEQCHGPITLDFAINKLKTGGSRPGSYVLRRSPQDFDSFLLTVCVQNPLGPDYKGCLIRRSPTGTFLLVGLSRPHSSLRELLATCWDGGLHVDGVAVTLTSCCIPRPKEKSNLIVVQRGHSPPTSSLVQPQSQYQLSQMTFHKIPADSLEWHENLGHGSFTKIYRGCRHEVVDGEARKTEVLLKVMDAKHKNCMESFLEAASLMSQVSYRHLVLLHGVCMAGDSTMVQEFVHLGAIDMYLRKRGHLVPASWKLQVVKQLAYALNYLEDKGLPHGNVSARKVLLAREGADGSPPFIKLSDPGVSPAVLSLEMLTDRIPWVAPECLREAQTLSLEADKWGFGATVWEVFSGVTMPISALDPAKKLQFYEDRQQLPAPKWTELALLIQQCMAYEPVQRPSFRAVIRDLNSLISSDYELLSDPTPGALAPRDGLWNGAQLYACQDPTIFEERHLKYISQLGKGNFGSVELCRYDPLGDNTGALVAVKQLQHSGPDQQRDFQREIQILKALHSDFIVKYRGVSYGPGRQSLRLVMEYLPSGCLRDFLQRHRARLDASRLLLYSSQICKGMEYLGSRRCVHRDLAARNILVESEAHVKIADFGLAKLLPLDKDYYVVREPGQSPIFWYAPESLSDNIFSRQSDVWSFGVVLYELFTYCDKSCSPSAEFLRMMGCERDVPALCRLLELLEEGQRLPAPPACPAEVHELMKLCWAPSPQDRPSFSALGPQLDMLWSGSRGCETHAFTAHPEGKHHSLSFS
Procedure, shortened: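 Alamar Blue signal at 544 nm, developed for 4–6 h, measured viability after 40 h of compound treatment at 37 °C, 5% CO2. Cells were growth-factor-independent BaF3 lines transfected with a TEL/JAK3 kinase-domain fusion under tet-off control. They were cultured in DMEM, 10% Tet-approved FBS, lacking WEHI 3B conditioned medium.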

`C=CC(=O)Nc1cccc(Nc2nccc(Sc3cccc(OC)c3)n2)c1` [Compound 31, N-(3-(4-(3-methoxyphenylthio)pyrimidin-2-ylao)phenyl)acrylamide] and `C=CC(=O)Nc1ccc(Sc2ccnc(Nc3cccc(N4CCCC4)c3)n2)cc1` [Compound 355, N-(4-(2-(3-(pyrrolidin-1-yl)phenylao)pyrimidin-4-ylthio)phenyl)acrylamide] cannot be ordered by GI50: < 1 µM for the first, < 5 µM for the second.

Compared with `CSc1nc(Nc2ccc(N3CCOCC3)cc2)ncc1C` [Compound 176, 5-methyl-4-(methylthio)-N-(4-morpholinophenyl)pyrimidin-2-ae], `Cc1cnc(Nc2ccc(N3CCOCC3)cc2)nc1Sc1ccc(C#N)cc1` [Compound 136, 4-(5-methyl-2-(4-morpholinophenylao)pyrimidin-4-ylthio)benzonitrile] is higher in GI50: < 5 µM for the first, > 20 µM for the second.

`C=CC(=O)Nc1ccc(Sc2ccnc(Nc3cccc(S(=O)(=O)N4CCOCC4)c3)n2)cc1` [Compound 372, N-(4-(2-(3-(morpholinosulfonyl)phenylao)pyrimidin-4-ylthio)phenyl)acrylamide] and `C=CC(=O)Nc1ccc(Sc2ccnc(Nc3cccc(S(=O)(=O)N4CCN(C)CC4)c3)n2)cc1` [Compound 365, N-(4-(2-(3-(4-methylpiperazin-1-ylsulfonyl)phenylao)pyrimidin-4-ylthio)phenyl)acrylamide] cannot be ordered by GI50: < 5 µM for the first, < 5 µM for the second.

`C=CC(=O)Nc1ccc(Sc2nc(Nc3ccccc3O)ncc2C)cc1` [Compound 287, N-(4-(2-(2-hydroxyphenylao)-5-methylpyrimidin-4-ylthio)phenyl)acrylamide] and `C=CC(=O)Nc1ccc(Sc2ccnc(Nc3ccccc3O)n2)cc1` [Compound 279, N-(4-(2-(2-hydroxyphenylao)pyrimidin-4-ylthio)phenyl)acrylamide] cannot be ordered by GI50: < 20 µM for the first, < 20 µM for the second.

`C=CC(=O)Nc1ccc(Sc2ccnc(Nc3ccc(S(=O)(=O)N4CCOCC4)c(OC)c3)n2)cc1` [Compound 373, N-(4-(2-(3-methoxy-4-(morpholinosulfonyl)phenylao)pyrimidin-4-ylthio)phenyl)acrylamide] and `C=CC(=O)Nc1ccc(Sc2ccnc(Nc3ccc(S(=O)(=O)N4CCN(C)CC4)cc3)n2)cc1` [Compound 370, N-(4-(2-(4-(4-methylpiperazin-1-ylsulfonyl)phenylao)pyrimidin-4-ylthio)phenyl)acrylamide] cannot be ordered by GI50: < 5 µM for the first, < 5 µM for the second.

`N#CCC(=O)Nc1ccc(Sc2ccnc(Nc3ccc(N4CCC(N5CCCC5)CC4)cc3)n2)cc1` [Compound 88, 2-cyano-N-(4-(2-(4-(4-(pyrrolidin-1-yl)piperidin-1-yl)phenylao)pyrimidin-4-ylthio)phenyl)acetamide] and `O=C(Nc1ccc(Sc2ccnc(Nc3ccc(N4CCOCC4)cc3)n2)cc1)C1CC1(F)Cl` (centres unmarked) [Compound 378, 2-chloro-2-fluoro-N-(4-(2-(4-morpholinophenylao)pyrimidin-4-ylthio)phenyl)cyclopropanecarboxamide] cannot be ordered by GI50: < 5 µM for the first, < 1 µM for the second.

First: Cc1cnc(Nc2ccc(N3CCOCC3)cc2)nc1Sc1ccc(N2C(=O)CCC2=O)cc1 [Compound 384, 1-(4-(5-methyl-2-(4-morpholinophenylao)pyrimidin-4-ylthio)phenyl)pyrrolidine-2,5-dione]
Second: Cc1cnc(Nc2ccc(N3CCOCC3)cc2)nc1Sc1ccc(N2C(=O)C=CC2=O)cc1 [Compound 390, 1-(4-(5-methyl-2-(4-morpholinophenylao)pyrimidin-4-ylthio)phenyl)-1H-pyrrole-2,5-dione]
The GI50 of the first is higher: > 20 µM for the first, < 5 µM for the second.

`C=CC(=O)Nc1ccc(Sc2ccnc(Nc3ccc(S(=O)(=O)NCc4ccccc4)cc3)n2)cc1` [Compound 368, N-(4-(2-(4-(N-benzylsulfamoyl)phenylao)pyrimidin-4-ylthio)phenyl)acrylamide] and `C=CC(=O)Nc1ccc(Sc2ccnc(Nc3ccc(S(=O)(=O)NCCC(C)C)cc3)n2)cc1` [Compound 371, N-(4-(2-(4-(N-isopentylsulfamoyl)phenylao)pyrimidin-4-ylthio)phenyl)acrylamide] cannot be ordered by GI50: < 5 µM for the first, < 5 µM for the second.

First: C=CC(=O)Nc1ccc(Sc2nc(Nc3ccc(N4CCS(=O)(=O)CC4)cc3)ncc2C)cc1 [Compound 298, N-{4-[(2-{[4-(1,1-dioxo-1λ^6,4-thiomorpholin-4-yl)phenyl]ao}-5-methylpyrimidin-4-yl)sulfanyl]phenyl}prop-2-enamide]
Second: CNC(=O)CCC(=O)Nc1ccc(Sc2nc(Nc3ccc(N4CCOCC4)cc3)ncc2C)cc1 [Compound 386, N1-methyl-N4-(4-(5-methyl-2-(4-morpholinophenylao)pyrimidin-4-ylthio)phenyl)succinamide]
The GI50 of the first is lower: < 1 µM for the first, > 20 µM for the second.

Going from `CCC(=O)Nc1ccc(Sc2nc(Nc3ccc(N4CCOCC4)cc3)ncc2Cl)cc1` [Compound 347, N-(4-(5-chloro-2-(4-morpholinophenylao)pyrimidin-4-ylthio)phenyl)propionamide] to `Nc1ccc(Sc2nc(Nc3ccc(N4CCOCC4)cc3)ncc2Cl)cc1` [Compound 318, 4-(4-aophenylthio)-5-chloro-N-(4-morpholinophenyl)pyrimidin-2-ae], the GI50 rises from < 1 µM to > 20 µM.

`COc1ccc(Nc2nccc(Sc3ccc(NC(=O)CC#N)cc3)n2)cc1OC` [Compound 101, 2-cyano-N-(4-(2-(3,4-dimethoxyphenylao)pyrimidin-4-ylthio)phenyl)acetamide] and `COc1cc(Nc2nccc(Sc3ccc(NCC#N)cc3)n2)cc(OC)c1OC` [Compound 52, 2-(4-(2-(3,4,5-trimethoxyphenylao)pyrimidin-4-ylthio)phenylao)acetonitrile] cannot be ordered by GI50: < 1 µM for the first, < 5 µM for the second.

`COC(=O)COCC(=O)Nc1ccc(Sc2nc(Nc3ccc(N4CCOCC4)cc3)ncc2C)cc1` [Compound 189, methyl 2-(2-(4-(5-methyl-2-(4-morpholinophenylao)pyrimidin-4-ylthio)phenylao)-2-oxoethoxy)acetate] and `Cc1cnc(Nc2ccc(N3CCOCC3)cc2)nc1Sc1ccc2c(c1)CCCN2` [Compound 166, 5-methyl-N-(4-morpholinophenyl)-4-(1,2,3,4-tetrahydroquinolin-6-ylthio)pyrimidin-2-ae] cannot be ordered by GI50: < 20 µM for the first, < 20 µM for the second.

`C=CC(=O)Nc1ccc(Sc2nc(Nc3cccc(OCCCO)c3)ncc2C)cc1` [Compound 301, N-(4-(2-(3-(3-hydroxypropoxy)phenylao)-5-methylpyrimidin-4-ylthio)phenyl)acrylamide] and `C=CC(=O)Nc1ccc(Sc2nc(Nc3cccc(OC(F)(F)F)c3)ncc2C)cc1` [Compound 289, N-(4-(5-methyl-2-(3-(trifluoromethoxy)phenylao)pyrimidin-4-ylthio)phenyl)acrylamide] cannot be ordered by GI50: < 1 µM for the first, < 5 µM for the second.

`C=CC(=O)Nc1ccc(Sc2nc(Nc3ccc4c(c3)OCO4)ncc2C)cc1` [Compound 284, N-(4-(2-(benzo[d][1,3]dioxol-5-ylao)-5-methylpyrimidin-4-ylthio)phenyl)acrylamide] and `CCOC(=O)c1nccn1Cc1ccc(Sc2ccnc(Nc3ccc(N4CCOCC4)cc3)n2)cc1` [Compound 148, ethyl 1-(4-(2-(4-morpholinophenylao)pyrimidin-4-ylthio)benzyl)-1H-imidazole-2-carboxylate] cannot be ordered by GI50: < 1 µM for the first, < 20 µM for the second.

In the case of `NC(=O)c1nccn1Cc1ccc(Sc2ccnc(Nc3ccc(N4CCOCC4)cc3)n2)cc1` [Compound 149, 1-(4-(2-(4-morpholinophenylao)pyrimidin-4-ylthio)benzyl)-1H-imidazole-2-carboxamide], the GI50 was < 5 µM.
